According to ChEMBL document CHEMBL4052645, “Discovery of potent and efficacious pyrrolopyridazines as dual JAK1/3 inhibitors” (Bioorg Med Chem Lett, 2017):

How the values were obtained:
[1] = molecular target: Mitogen-activated protein kinase kinase kinase 7 (Homo sapiens) (UniProt O43318); assay: Inhibition of wild-type human partial length TAK1 (M1 to Q303 residues) expressed in mammalian expression system assessed as residual activity at 50 nM by Kinomescan method relative to control
[2] = molecular target: Serine/threonine-protein kinase PAK 5 (Homo sapiens) (UniProt Q9P286); assay: Inhibition of wild-type human partial length PAK5 (Y400 to H719 residues) expressed in bacterial expression system assessed as residual activity at 50 nM by Kinomescan method relative to control
[3] = molecular target: Serine/threonine-protein kinase TAO1 (Homo sapiens) (UniProt Q7L7X3); assay: Inhibition of wild-type human partial length TAO1 (M1 to A320 residues) expressed in mammalian expression system assessed as residual activity at 50 nM by Kinomescan method relative to control
[4] = molecular target: SRSF protein kinase 3 (Homo sapiens) (UniProt Q9UPE1); assay: Inhibition of wild-type human partial length MSSK1 (P41 to P567 residues) expressed in bacterial expression system assessed as residual activity at 50 nM by Kinomescan method relative to control
[5] = molecular target: Mitogen-activated protein kinase kinase kinase kinase 1 (Homo sapiens) (UniProt Q92918); assay: Inhibition of wild-type human full length HPK1 (M1 to R799 residues) expressed in bacterial expression system assessed as residual activity at 50 nM by Kinomescan method relative to control
[6] = molecular target: Interleukin-1 receptor-associated kinase 3 (Homo sapiens) (UniProt Q9Y616); assay: Inhibition of wild-type human partial length IRAK3 (V147 to E596 residues) expressed in bacterial expression system assessed as residual activity at 50 nM by Kinomescan method relative to control
[7] = molecular target: Tyrosine-protein kinase ZAP-70 (Homo sapiens) (UniProt P43403); assay: Inhibition of wild-type human partial length ZAP70 (D20 to G299 residues) expressed in mammalian expression system assessed as residual activity at 50 nM by Kinomescan method relative to control
[8] = molecular target: Ephrin type-A receptor 2 (Homo sapiens) (UniProt P29317); assay: Inhibition of wild-type human partial length EPHA2 (T593 to V891 residues) expressed in bacterial expression system assessed as residual activity at 50 nM by Kinomescan method relative to control
[9] = molecular target: Phosphorylase b kinase gamma catalytic chain, skeletal muscle/heart isoform (Homo sapiens) (UniProt Q16816); assay: Inhibition of wild-type human full length PHKG1 (M1 to Y387 residues) expressed in bacterial expression system assessed as residual activity at 50 nM by Kinomescan method relative to control
[10] = molecular target: Serine/threonine-protein kinase TAO3 (Homo sapiens) (UniProt Q9H2K8); assay: Inhibition of wild-type human partial length TAO3 (M1 to T316 residues) expressed in mammalian expression system assessed as residual activity at 50 nM by Kinomescan method relative to control
[11] = system: Phosphatidylinositol 4,5-bisphosphate 3-kinase catalytic subunit alpha isoform (Homo sapiens), P42336 [Q546K]; assay: Inhibition of human partial length PIK3CA Q546K mutant (R108 to N1068 residues) expressed in mammalian expression system assessed as residual activity at 50 nM by Kinomescan method relative to control
[12] = molecular target: cGMP-dependent protein kinase 2 (Homo sapiens) (UniProt Q13237); assay: Inhibition of wild-type human partial length PKG2 (S422 to F762 residues) expressed in mammalian expression system assessed as residual activity at 50 nM by Kinomescan method relative to control
[13] = molecular target: Mitogen-activated protein kinase kinase kinase kinase 4 (Homo sapiens) (UniProt O95819); assay: Inhibition of wild-type human partial length HGK (M1 to R310 residues) expressed in bacterial expression system assessed as residual activity at 50 nM by Kinomescan method relative to control
[14] = molecular target: Casein kinase II subunit alpha' (Homo sapiens) (UniProt P19784); assay: Inhibition of wild-type human full length CK2A2 (M1 to R350 residues) expressed in mammalian expression system assessed as residual activity at 50 nM by Kinomescan method relative to control
[15] = molecular target: Ephrin type-A receptor 8 (Homo sapiens) (UniProt P29322); assay: Inhibition of wild-type human partial length EPHA8 (Q608 to C920 residues) expressed in bacterial expression system assessed as residual activity at 50 nM by Kinomescan method relative to control
[16] = molecular target: Glycogen synthase kinase-3 beta (Homo sapiens) (UniProt P49841); assay: Inhibition of wild-type human full length GSK3B (M1 to T433 residues) expressed in mammalian expression system assessed as residual activity at 50 nM by Kinomescan method relative to control
[17] = molecular target: Inhibitor of nuclear factor kappa-B kinase subunit alpha (Homo sapiens) (UniProt O15111); assay: Inhibition of wild-type human full length IKK-alpha (M1 to E745 residues) expressed in mammalian expression system assessed as residual activity at 50 nM by Kinomescan method relative to control
[18] = molecular target: Tyrosine-protein kinase Mer (Homo sapiens) (UniProt Q12866); assay: Inhibition of wild-type human partial length MER (R557 to L884 residues) expressed in bacterial expression system assessed as residual activity at 50 nM by Kinomescan method relative to control
[19] = molecular target: Ribosomal protein S6 kinase alpha-5 (Homo sapiens) (UniProt O75582); assay: Inhibition of wild-type human partial length N-terminal MSK1 kinase domain 1 expressed in bacterial expression system assessed as residual activity at 50 nM by Kinomescan method relative to control
[20] = molecular target: Ribosomal protein S6 kinase alpha-4 (Homo sapiens) (UniProt O75676); assay: Inhibition of wild-type human partial length N-terminal MSK2 kinase domain 1 expressed in bacterial expression system assessed as residual activity at 50 nM by Kinomescan method relative to control
[21] = molecular target: Serine/threonine-protein kinase OSR1 (Homo sapiens) (UniProt O95747); assay: Inhibition of wild-type human full length OSR1 (M1 to S527 residues) expressed in mammalian expression system assessed as residual activity at 50 nM by Kinomescan method relative to control
[22] = molecular target: Phosphatidylinositol 4-phosphate 3-kinase C2 domain-containing subunit beta (Homo sapiens) (UniProt O00750); assay: Inhibition of wild-type human partial length PI3KC2B (M1 to L1634 residues) expressed in mammalian expression system assessed as residual activity at 50 nM by Kinomescan method relative to control
[23] = system: Phosphatidylinositol 4,5-bisphosphate 3-kinase catalytic subunit alpha isoform (Homo sapiens), P42336 [I800L]; assay: Inhibition of human partial length PI3KCA I800L mutant (R108 to N1068 residues) expressed in mammalian expression system assessed as residual activity at 50 nM by Kinomescan method relative to control
[24] = molecular target: Phosphatidylinositol 4,5-bisphosphate 3-kinase catalytic subunit beta isoform (Homo sapiens) (UniProt P42338); assay: Inhibition of wild-type human partial length PI3KCB (P118 to S1070 residues) expressed in mammalian expression system assessed as residual activity at 50 nM by Kinomescan method relative to control

SMILES | Activity [1] | Activity [2] | Activity [3] | Activity [4] | Activity [5] | Activity [6] | Activity [7] | Activity [8] | Activity [9] | Activity [10] | Activity [11] | Activity [12] | Activity [13] | Activity [14] | Activity [15] | Activity [16] | Activity [17] | Activity [18] | Activity [19] | Activity [20] | also measured
CC1(C)[C@H](Nc2c(C(N)=O)cnn3cc(-c4ccccc4)cc23)CC[C@]1(C)N | 48% | 50% | 54% | 56% | 66% | 66% | 79% | 81% | 81% | 82% | 84% | 87% | 90% | 92% | 100% | 100% | 100% | 100% | 100% | 100% | Activity [21]: 100%; Activity [22]: 100%; Activity [23]: 100%; Activity [24]: 100%
COc1ccc(-c2cc3c(N[C@@H]4CC[C@](C)(N)C4(C)C)c(C(N)=O)cnn3c2)cn1 | 73% | 68% | 59% | 100% | 70% | 100% | 92% | 100% | 100% | 78% | 100% | 100% | 100% | 85% | 100% | 86% | 87% | 100% | 100% | 100% | Activity [21]: 100%; Activity [22]: 100%; Activity [23]: 100%; Activity [24]: 100%
